The record followed here is US20200275656A1, “TRISUBSTITUTEDSILYLMETHYLPHENOXYQUINOLINES AND ANALOGUES” (Bayer Aktiengesellschaft, priority 2017, published 2020).

The first series relates to Pyricularia oryzae. The series can be described thus: microbe, parasite or virus in culture. The class given is cell-based. To be noted: 120 h, read-out: efficacy (inhibition of fungal growth).
The term inhibition denotes the share of the control response that was lost under treatment. On to `Cc1nc2ccccc2cc1Oc1ccccc1C[Si](C)(C)C` [I.05, 2-methyl-3-{2-[(trimethylsilyl)methyl]phenoxy}quinoline], for which the inhibition at 20 ppm was in the range of 90 to 100%.

Consider `C[Si](C)(Cc1ccccc1Oc1cnc2c(F)cccc2c1)c1cccs1` [I.46, 3-(2-{[dimethyl(2-thienyl)silyl]methyl}phenoxy)-8-fluoroquinoline], for which the inhibition at 20 ppm lay in the range of 90 to 100%.

For the next series, the system named is Colletotrichum lindemuthianum. The series can be described thus: Example B: in vitro cell test on Colletotrichum lindemuthianum. The class given is cell-based. As to conditions: 120 h, 20 ppm of active ingredient, liquid culture, 5 days incubation, read-out: efficacy (inhibition of fungal growth).
With `Cc1nc2ccccc2cc1Oc1ccccc1C[Si](C)(C)C` [I.05, 2-methyl-3-{2-[(trimethylsilyl)methyl]phenoxy}quinoline], the inhibition at 20 ppm was in the range of 90 to 100%.

For `C[Si](C)(O)Cc1c(Cl)cccc1Oc1cnc2ccccc2c1` [I.25, [2-chloro-6-(quinolin-3-yloxy)benzyl](dimethyl)silanol], the inhibition at 20 ppm fell in the range of 90 to 100%.

On to `C[Si](C)(Cc1ccccc1Oc1cnc2c(F)cccc2c1)c1cccs1` [I.46, 3-(2-{[dimethyl(2-thienyl)silyl]methyl}phenoxy)-8-fluoroquinoline], for which the inhibition at 20 ppm lay in the range of 90 to 100%.

System in a further series: not listed separately
The series can be described thus: log P determination by HPLC on reversed-phase column (C 18), EEC Directive 79/831 Annex V.A8. As to conditions: Table 1; HPLC, 40° C., 0.1% aqueous formic acid and acetonitrile. It counts as physicochemical. The protocol: In table 1, the log P values were determined in accordance with EEC Directive 79/831 Annex V.A8 by HPLC (High Performance Liquid Chromatography) on a reversed-phase column (C 18), using the method described below:
temperature: 40° C.; mobile phases: 0.1% aqueous formic acid and acetonitrile; linear gradient from 10% acetonitrile to 95% acetonitrile; Calibration was carried out using unbranched alkan-2-ones (comprising 3 to 16 carbon atoms) with known log P values (determination of the log P values by the retention times using linear interpolation between two successive alkanones). lambda-max-values were determined using UV-spectra from 200 nm to 400 nm and the peak values of the chromatographic signals.
A word on the logP: it is the decadic logarithm of the partition coefficient of the neutral form, usually between octanol and water. Read a low logP as a more hydrophilic compound. For `C[Si](C)(C)Cc1ccccc1Cc1cnc2ccccc2c1` [I.01], the logP is 4.28.

With `C[Si](C)(C)Cc1ccccc1Oc1cnc2ccccc2c1` [I.02], the logP is reported as 5.48.

For `C[Si](C)(O)Cc1ccccc1Cc1cnc2ccccc2c1` [I.03], the logP worked out at 2.13.

The compound `C[Si](C)(C)Cc1ccccc1Oc1cnc2ccccc2n1` [I.04] registered a logP of 5.36.

Compound `Cc1cccc2cc(Oc3ccccc3C[Si](C)(C)C)cnc12` [I.06] displayed a logP of 6.60.

For the compound `Cc1nc2ccccc2nc1Oc1ccccc1C[Si](C)(C)C` [I.07], the logP turned out to be 5.59.

Compound `C[Si](C)(C)Cc1cc(F)ccc1Nc1cnc2ccccc2c1` [I.08] registered a logP of 3.69.

Consider `C[Si](C)(C)Cc1ccccc1Nc1cnc2c(F)cccc2c1` [I.09], for which the logP came to 4.77.

The compound `C[Si](C)(C)Cc1ccccc1Oc1cnc2c(F)cccc2c1` [I.10] had a logP of 5.45.

Compound `C[Si](C)(C)Cc1c(F)cccc1Oc1cnc2ccccc2c1` [I.11] showed a logP of 5.54.

The compound `C[Si](C)(C)Cc1ccccc1Oc1cnc2c(F)cccc2n1` [I.12] had a logP of 5.26.

`C[Si](C)(O)Cc1c(F)cccc1Oc1cnc2ccccc2c1` [I.13] registered a logP of 3.15.

In the case of `C=C[Si](C)(C)Cc1ccccc1Oc1cnc2c(F)cccc2c1` [I.14], the logP is 5.45.

In turn, `C=C[Si](C)(C)Cc1c(F)cccc1Oc1cnc2ccccc2c1` [I.15] returned a logP of 5.57.

With `Cc1cccc2cc(Nc3ccc(F)cc3C[Si](C)(C)C)cnc12` [I.16], the logP is reported as 4.56.

As to `Cc1nc2ccccc2cc1Oc1cccc(F)c1C[Si](C)(C)C` [I.18], the logP came to 5.38.

Regarding `Cc1cccc2cc(Oc3cccc(F)c3C[Si](C)(C)C)cnc12` [I.19], the logP was determined as 6.70.

As for `Cc1nc2ccccc2cc1Oc1ccc(F)cc1C[Si](C)(C)C` [I.20], the logP turned out to be 5.01.

With `C[Si](C)(C)Cc1cc(Cl)ccc1Nc1cnc2ccccc2c1` [I.21], the logP was 4.39.

On to `C[Si](C)(C)Cc1c(Cl)cccc1Oc1cnc2ccccc2c1` [I.22], for which the logP turned out to be 6.17.

Take `C[Si](C)(C)Cc1ccccc1Nc1cnc2c(F)c(F)ccc2c1` [I.23]: the logP is 5.03.

As to `C[Si](C)(C)Cc1ccccc1Oc1cnc2c(F)c(F)ccc2c1` [I.24], the logP is 5.72.

Consider `C[Si](C)(C)Cc1ccccc1Oc1cnc2c(F)c(F)ccc2n1` [I.26], for which the logP was determined as 5.54.

With `C=C[Si](C)(C)Cc1c(Cl)cccc1Oc1cnc2ccccc2c1` [I.27], the logP came out at 6.11.

Turning to `Cc1cccc2cc(Nc3ccc(Cl)cc3C[Si](C)(C)C)cnc12` [I.28], the logP came out at 5.38.

For the compound `Cc1nc2ccccc2cc1Oc1ccc(Cl)cc1C[Si](C)(C)C` [I.29], the logP was found to be 5.71.

The compound `Cc1nc2c(F)c(F)ccc2cc1Nc1ccccc1C[Si](C)(C)C` [I.30] gave a logP of 5.32.

With `Cc1nc2c(F)c(F)ccc2nc1Oc1ccccc1C[Si](C)(C)C` [I.32], the logP is recorded as 5.81.

`C[Si](C)(C)Cc1c(F)cccc1Oc1cnc2c(F)c(F)ccc2n1` [I.33] returned a logP of 5.60.

On to `Cc1nc2c(F)c(F)ccc2cc1Oc1ccc(F)cc1C[Si](C)(C)C` [I.34], for which the logP was determined as 5.92.

The compound `C[Si](C)(C)Cc1ccccc1Oc1cnc2c(C(F)(F)F)cccc2c1` [I.35] yielded a logP of 6.28.

`Cc1nc2c(F)c(F)ccc2nc1Oc1c(F)cccc1C[Si](C)(C)C` [I.36]: the logP is 5.87.

Compound `C[Si](C)(C)Cc1ccccc1Oc1cnc2c(C(F)(F)F)cccc2n1` [I.37] had a logP of 5.97.

Turning to `Cc1cccc2cc(Oc3ccccc3C[Si](C)(C)c3ccccc3)cnc12` [I.38], the logP was found to be 6.83.

Compound `C[Si](C)(Cc1cc(F)ccc1Nc1cnc2ccccc2c1)c1ccccc1` [I.39] gave a logP of 3.99.

Compound `C[Si](C)(Cc1ccccc1Oc1cnc2c(F)cccc2c1)c1ccccc1` [I.40] came in with a logP of 5.78.

In turn, `C[Si](C)(Cc1c(F)cccc1Oc1cnc2ccccc2c1)c1ccccc1` [I.41] came in with a logP of 5.91.

For `C[Si](C)(C)Cc1cc(F)ccc1Nc1cnc2c(C(F)(F)F)cccc2c1` [I.42], the logP is reported as 5.54.

The compound `C[Si](C)(C)Cc1ccc(Nc2cnc3ccccc3c2)c(C[Si](C)(C)C)c1` [I.43] came in with a logP of 5.85.

`Cc1nc2c(F)c(F)ccc2nc1Oc1cccc(Cl)c1C[Si](C)(C)C` [I.44] returned a log partition coefficient (logP) of 6.40.

As to `C[Si](C)(C)Cc1c(F)cccc1Oc1cnc2c(C(F)(F)F)cccc2c1` [I.45], the logP was determined as 6.32.

Compound `C[Si](C)(Cc1c(F)cccc1Oc1cnc2ccccc2c1)c1cccs1` [I.47] registered a logP of 5.65.

As for `C[Si](C)(C)Cc1c(F)cccc1Oc1cnc2c(C(F)(F)F)cccc2n1` [I.48], the logP is 6.04.

In turn, `Cc1nc2c(F)c(F)ccc2nc1Oc1cccc(Cl)c1C[Si](C)(C)O` [I.49] gave a logP of 4.13.

Compound `Cc1cccc2cc(Nc3ccc(F)cc3C[Si](C)(C)c3ccccc3)cnc12` [I.50] yielded a logP of 4.90.

Turning to `Cc1cccc2cc(Oc3cccc(F)c3C[Si](C)(C)c3ccccc3)cnc12` [I.51], the logP is recorded as 6.90.

Compound `C[Si](C)(Cc1cc(Cl)ccc1Nc1cnc2ccccc2c1)c1ccccc1` [I.52] registered a logP of 4.69.

Take `C[Si](C)(Cc1c(Cl)cccc1Oc1cnc2ccccc2c1)c1ccccc1` [I.53]: the logP is on record as 6.43.

For `Cc1cccc2cc(Nc3ccc(C[Si](C)(C)C)cc3C[Si](C)(C)C)cnc12` [I.54], the logP is listed as 6.93.

Regarding `C[Si](C)(C)Cc1cc(Cl)ccc1Nc1cnc2c(C(F)(F)F)cccc2c1` [I.55], the logP amounted to 6.00.

In turn, `C[Si](C)(Cc1c(Cl)cccc1Oc1cnc2ccccc2c1)c1cccs1` [I.56] had a logP of 6.20.

Turning to `C[Si](C)(C)Cc1c(Cl)cccc1Oc1cnc2c(C(F)(F)F)cccc2n1` [I.57], the logP is 6.51.

On to `Cc1cccc2cc(Nc3ccc(Cl)cc3C[Si](C)(C)c3ccccc3)cnc12` [I.58], for which the logP is on record as 5.68.

`COc1ccc([Si](C)(C)Cc2ccccc2Oc2cnc3c(F)cccc3c2)cc1` [I.59]: the logP came to 5.62.

Regarding `COc1ccc([Si](C)(C)Cc2c(F)cccc2Oc2cnc3ccccc3c2)cc1` [I.60], the logP turned out to be 5.65.

On to `COc1ccccc1[Si](C)(C)Cc1c(F)cccc1Oc1cnc2ccccc2c1` [I.61], for which the logP worked out at 6.01.

On to `COc1ccccc1[Si](C)(C)Cc1c(Cl)cccc1Oc1cnc2ccccc2c1` [I.62], for which the logP came out at 6.50.

In the case of `COc1ccc([Si](C)(C)Cc2c(Cl)cccc2Oc2cnc3ccccc3c2)cc1` [I.63], the logP is 6.20.

Compound `C[Si](C)(C)Cc1ccc(Nc2cnc3c(C(F)(F)F)cccc3c2)c(C[Si](C)(C)C)c1` [I.65] showed a logP of 7.36.

The same series, now with this note: reversed-phase HPLC column (C 18), Table 1; HPLC, 40° C., 0.1% aqueous formic acid and acetonitrile.
Broadly, the chromatographic logP is a lipophilicity value derived from retention on a column. With `Cc1nc2ccccc2cc1Oc1ccccc1C[Si](C)(C)C` [I.05, 2-methyl-3-{2-[(trimethylsilyl)methyl]phenoxy}quinoline], the chromatographic logP is 5.05.

`Cc1nc2c(F)cccc2cc1Oc1ccccc1C[Si](C)(C)C` [I.17, 8-fluoro-2-methyl-3-{2-[(trimethylsilyl)methyl]phenoxy}quinoline] gave a chromatographic logP of 5.85.

The compound `C[Si](C)(O)Cc1c(Cl)cccc1Oc1cnc2ccccc2c1` [I.25, [2-chloro-6-(quinolin-3-yloxy)benzyl](dimethyl)silanol] had a chromatographic logP of 3.48.

Turning to `C[Si](C)(Cc1ccccc1Oc1cnc2c(F)cccc2c1)c1cccs1` [I.46, 3-(2-{[dimethyl(2-thienyl)silyl]methyl}phenoxy)-8-fluoroquinoline], the chromatographic logP amounted to 5.6.

The series is the same for the next values; noted with them: reversed-phase HPLC column (C 18), Table 2, compounds of formula (IIa); defined as for table 1.
`ClCc1c(Cl)cccc1Oc1cnc2ccccc2c1` [IIa.01, 3-[3-chloro-2-(chloromethyl)phenoxy]quinoline] displayed a chromatographic logP of 3.94.

For `Fc1cccc(Oc2cnc3ccccc3c2)c1CCl` [IIa.02, 3-[2-(chloromethyl)-3-fluorophenoxy]quinoline], the chromatographic logP turned out to be 3.57.

In the case of `Fc1cccc2cc(Oc3ccccc3CBr)cnc12` [IIa.03, 3-[2-(bromomethyl)phenoxy]-8-fluoroquinoline], the chromatographic logP amounted to 3.58.

Still in this series, the particulars now being: reversed-phase HPLC column (C 18), Table 3, compounds of formula (V); defined as for table 1.
`OCc1ccccc1Oc1cnc2c(F)cccc2c1` [V.01, {2-[(8-fluoroquinolin-3-yl)oxy]phenyl}methanol] had a chromatographic logP of 2.17.

The same series, now with this note: reversed-phase HPLC column (C 18), stated in preparation examples.
Take `Cc1nc2ccccc2cc1Oc1ccccc1C[Si](C)(C)C` [I.05, 2-methyl-3-{2-[(trimethylsilyl)methyl]phenoxy}quinoline]: the chromatographic logP is 5.05.

As for `Cc1nc2c(F)cccc2cc1Oc1ccccc1C[Si](C)(C)C` [I.17, 8-fluoro-2-methyl-3-{2-[(trimethylsilyl)methyl]phenoxy}quinoline], the chromatographic logP was found to be 5.85.

`C[Si](C)(O)Cc1c(Cl)cccc1Oc1cnc2ccccc2c1` [I.25, [2-chloro-6-(quinolin-3-yloxy)benzyl](dimethyl)silanol] registered a chromatographic logP of 3.48.

Compound `C[Si](C)(Cc1ccccc1Oc1cnc2c(F)cccc2c1)c1cccs1` [I.46, 3-(2-{[dimethyl(2-thienyl)silyl]methyl}phenoxy)-8-fluoroquinoline] returned a chromatographic logP of 5.6.

For the compound `Fc1cccc2cc(Oc3ccccc3CBr)cnc12` [IIa.03, 3-[2-(bromomethyl)phenoxy]-8-fluoroquinoline], the chromatographic logP worked out at 3.65.
